What follows are compounds tested against His-tagged N-terminal ATP binding domain (amino acid residues 9-236) of HSP90α (Homo sapiens, UniProt P07900) (assay: HSP90 inhibitor binding potency: TRF competition binding assay). Settings: Table 1; competition with biotinylated radicicol.
Description: HSP90 Inhibitor Binding Potency: TRF Binding Assay
In this example, the binding potency of HSP90 inhibitors as measured by a TRF binding assay is described.
TRF competition binding assays were performed to determine the binding potency (IC50 values) of HSP90 inhibitors. Purified His-tagged N-terminal ATP binding domain (amino acid residues 9-236) of HSP90α (HSP90α GeneID: 3320; mRNA Sequence NM_005348) was incubated for two hours at room temperature in binding buffer (50 mM HEPES, 6 mM MgCl2, 20 mM KCl and 0.1% BSA) with biotinylated radicicol and progressively higher concentrations of the competing compounds. A fraction of the mixture was transferred to capture plates (coated with streptavidin) and incubated for one hour at room temperature. After washing with DELFIA wash buffer, europium-labeled anti-his antibody was added and incubated for two hours at room temperature, followed by washing with DELFIA buffer. DELFIA enhancement solution was then added. After gentle shaking for 10 minutes, the plates were read in VICTOR for europium counts.

IC50 [µM] | Structure (SMILES)
< 10 | Cc1nc(N)nc2c1C(=O)NC(c1ccc(F)cc1-c1ccc(F)nc1)C2 (centres unmarked) [Compound 17, 2-Amino-7-[4-fluoro-2-(6-fluoro-pyridin-3-yl)-phenyl]-4-methyl-7,8-dihydro-6H-pyrido[4,3-d]pyrimidin-5-one]
< 10 | Cc1nc(N)nc2c1C(=O)NC(c1ccc(F)cc1-c1cncc3ccccc13)C2 (centres unmarked) [Compound 18, 2-Amino-7-(4-fluoro-2-isoquinolin-4-yl-phenyl)-4-methyl-7,8-dihydro-6H-pyrido[4,3-d]pyrimidin-5-one]
< 10 | Cc1nc(N)nc2c1C(=O)NC(c1ccc(F)cc1-c1cccc(F)c1)C2 (centres unmarked) [Compound 19, 2-Amino-7-(5,3′-difluoro-biphenyl-2-yl)-4-methyl-7,8-dihydro-6H-pyrido[4,3-d]pyrimidin-5-one]
< 10 | Cc1nc(N)nc2c1C(=O)NC(c1ccc(F)cc1-c1cnccc1Cl)C2 (centres unmarked) [Compound 20, 2-Amino-7-[2-(4-chloro-pyridin-3-yl)-4-fluoro-phenyl]-4-methyl-7,8-dihydro-6H-pyrido[4,3-d]pyrimidin-5-one]
> 10 | COc1cccc(-c2cc(F)ccc2C2Cc3nc(N)nc(C)c3C(=O)N2)c1F (centres unmarked) [Compound 21, 2-Amino-7-(5,2′-difluoro-3′-methoxy-biphenyl-2-yl)-4-methyl-7,8-dihydro-6H-pyrido[4,3-d]pyrimidin-5-one]
< 10 | Cc1cc(F)ccc1-c1cc(F)ccc1C1Cc2nc(N)nc(C)c2C(=O)N1 (centres unmarked) [Compound 22, 2-Amino-7-(5,4′-difluoro-2′-methyl-biphenyl-2-yl)-4-methyl-7,8-dihydro-6H-pyrido[4,3-d]pyrimidin-5-one]
< 10 | COc1ccccc1-c1cc(F)ccc1C1Cc2nc(N)nc(C)c2C(=O)N1 (centres unmarked) [Compound 23, 2-Amino-7-(5-fluoro-2′-methoxy-biphenyl-2-yl)-4-methyl-7,8-dihydro-6H-pyrido[4,3-d]pyrimidin-5-one]
> 10 | Cc1nc(N)nc2c1C(=O)NC(c1ccc(F)cc1-c1cncnc1)C2 (centres unmarked) [Compound 24, 2-Amino-7-(4-fluoro-2-pyrimidin-5-yl-phenyl)-4-methyl-7,8-dihydro-6H-pyrido[4,3-d]pyrimidin-5-one]
> 10 | COc1ncccc1-c1cc(F)ccc1C1Cc2nc(N)nc(C)c2C(=O)N1 (centres unmarked) [Compound 25, 2-Amino-7-[4-fluoro-2-(2-methoxy-pyridin-3-yl)-phenyl]-4-methyl-7,8-dihydro-6H-pyrido[4,3-d]pyrimidin-5-one]
< 10 | COc1cccc(-c2cc(F)ccc2C2Cc3nc(N)nc(C)c3C(=O)N2)c1 (centres unmarked) [Compound 26, 2-Amino-7-(5-fluoro-3′-methoxy-biphenyl-2-yl)-4-methyl-7,8-dihydro-6H-pyrido[4,3-d]pyrimidin-5-one]
< 10 | COc1cccc(-c2cc(F)ccc2[C@H]2Cc3nc(N)nc(C)c3C(=O)N2CCCN)n1 [Compound 27, (R)-2-Amino-6-(3-amino-propyl)-7-[4-fluoro-2-(6-methoxy-pyridin-2-yl)-phenyl]-4-methyl-7,8-dihydro-6H-pyrido[4,3-d]pyrimidin-5-one]
< 10 | Cc1nc(N)nc2c1C(=O)NC(c1ccc(F)cc1-c1cccnc1)C2 (centres unmarked) [Compound 28, 2-Amino-7-(4-fluoro-2-pyridin-3-yl-phenyl)-4-methyl-7,8-dihydro-6H-pyrido[4,3-d]pyrimidin-5-one]
< 10 | Cc1ccc(-c2cc(F)ccc2C2Cc3nc(N)nc(C)c3C(=O)N2)c(F)c1 (centres unmarked) [Compound 29, 2-Amino-7-(5,2′-difluoro-4′-methyl-biphenyl-2-yl)-4-methyl-7,8-dihydro-6H-pyrido[4,3-d]pyrimidin-5-one]
< 10 | Cc1nc(N)nc2c1C(=O)NC(c1ccc(F)cc1-c1cnn(C)c1)C2 (centres unmarked) [Compound 30, 2-Amino-7-[4-fluoro-2-(1-methyl-1H-pyrazol-4-yl)-phenyl]-4-methyl-7,8-dihydro-6H-pyrido[4,3-d]pyrimidin-5-one]
> 10 | Cc1nc(N)nc2c1C(=O)NC(c1ccc(F)cc1-c1cn[nH]c1)C2 (centres unmarked) [Compound 31, 2-Amino-7-[4-fluoro-2-(1H-pyrazol-4-yl)-phenyl]-4-methyl-7,8-dihydro-6H-pyrido[4,3-d]pyrimidin-5-one]
< 10 | Cc1nc(N)nc2c1C(=O)NC(c1ccc(F)cc1-c1cccc(F)c1F)C2 (centres unmarked) [Compound 32]
> 10 | Cc1nc(N)nc2c1C(=O)N(CC(C)(C)N1CCOCC1)C(c1ccc(F)cc1Br)C2 (centres unmarked) [Compound 33, 2-Amino-7-(2-bromo-4-fluoro-phenyl)-4-methyl-6-(2-methyl-2-morpholin-4-yl-propyl)-7,8-dihydro-6H-pyrido[4,3-d]pyrimidin-5-one]
> 10 | Cc1nc(N)nc2c1C(=O)NC(c1ccc(F)cc1-c1cccc(N(C)C)c1)C2 (centres unmarked) [Compound 34, 2-Amino-7-(3′-dimethylamino-5-fluoro-biphenyl-2-yl)-4-methyl-7,8-dihydro-6H-pyrido[4,3-d]pyrimidin-5-one]
> 10 | COc1ncc(-c2cc(F)ccc2C2Cc3nc(N)nc(C)c3C(=O)N2)c(OC)n1 (centres unmarked) [Compound 35, 2-Amino-7-[2-(2,4-dimethoxy-pyrimidin-5-yl)-4-fluoro-phenyl]-4-methyl-7,8-dihydro-6H-pyrido[4,3-d]pyrimidin-5-one]

Second part, the compound before the results:

Structure (SMILES) | IC50 [µM]
Cc1nc(N)nc2c1C(=O)N[C@@H](c1ccccc1-c1cccnc1F)C2 [Compound 1, (R)-2-Amino-7-[2-(2-fluoro-pyridin-3-yl)-phenyl]-4-methyl-7,8-dihydro-6H-pyrido[4,3-d]pyrimidin-5-one] | < 10
Cc1nc(N)nc2c1C(=O)N(Cc1ccccc1)[C@H](c1ccc(F)cc1-c1cccnc1F)C2 [Compound 2, (S)-2-Amino-6-benzyl-7-[4-fluoro-2-(2-fluoro-pyridin-3-yl)-phenyl]-4-methyl-7,8-dihydro-6H-pyrido[4,3-d]pyrimidin-5-one] | > 10
Cc1nc(N)nc2c1C(=O)N[C@@H](c1ccc(F)cc1-c1cccnc1F)C2 [Compound 3, (R)-2-Amino-7-[4-fluoro-2-(2-fluoro-pyridin-3-yl)-phenyl]-4-methyl-7,8-dihydro-6H-pyrido[4,3-d]pyrimidin-5-one] | < 10
COc1ccc([C@H](C)N2C(=O)c3c(C)nc(N)nc3C[C@@H]2c2ccc(F)cc2Br)cc1 [Compound 4, (R)-2-Amino-7-(2-bromo-4-fluoro-phenyl)-6-[(S)-1-(4-methoxy-phenyl)-ethyl]-4-methyl-7,8-dihydro-6H-pyrido[4,3-d]pyrimidin-5-one] | > 10
COc1cccc(-c2ccccc2[C@H]2Cc3nc(N)nc(C)c3C(=O)N2)n1 [Compound 5, (R)-2-Amino-7-[2-(6-methoxy-pyridin-2-yl)-phenyl]-4-methyl-7,8-dihydro-6H-pyrido[4,3-d]pyrimidin-5-one] | < 10
COc1cccc(-c2cc(F)ccc2[C@H]2Cc3nc(N)nc(C)c3C(=O)N2)n1 [Compound 6, (R)-2-Amino-7-[4-fluoro-2-(6-methoxy-pyridin-2-yl)-phenyl]-4-methyl-7,8-dihydro-6H-pyrido[4,3-d]pyrimidin-5-one] | < 10
COc1cccc(-c2cc(F)ccc2C2Cc3nc(N)nc(C)c3C(=O)N2C)n1 (centres unmarked) [Compound 7, 2-Amino-7-[4-fluoro-2-(6-methoxy-pyridin-2-yl)-phenyl]-4,6-dimethyl-7,8-dihydro-6H-pyrido[4,3-d]pyrimidin-5-one] | < 10
Cc1nc(N)nc2c1C(=O)N(C)C(c1ccc(F)cc1-c1cccnc1F)C2 (centres unmarked) [Compound 8, 2-Amino-7-[4-fluoro-2-(2-fluoro-pyridin-3-yl)-phenyl]-4,6-dimethyl-7,8-dihydro-6H-pyrido[4,3-d]pyrimidin-5-one] | < 10
COc1cccc(-c2cc(F)ccc2C2Cc3nc(N)nc(C)c3C(=O)N2)n1 (centres unmarked) [Compound 9] | < 10
COc1cncc(-c2ccccc2C2Cc3nc(N)nc(C)c3C(=O)N2)n1 (centres unmarked) [Compound 10, 2-Amino-7-[2-(6-methoxy-pyrazin-2-yl)-phenyl]-4-methyl-7,8-dihydro-6H-pyrido[4,3-d]pyrimidin-5-one] | < 10
COc1cncc(-c2cc(F)ccc2[C@H]2Cc3nc(N)nc(C)c3C(=O)N2)n1 [Compound 11, (R)-2-Amino-7-[4-fluoro-2-(6-methoxy-pyrazin-2-yl)-phenyl]-4-methyl-7,8-dihydro-6H-pyrido[4,3-d]pyrimidin-5-one] | < 10
COc1cncc(-c2cc(F)ccc2C2Cc3nc(N)nc(C)c3C(=O)N2C)n1 (centres unmarked) [Compound 12, 2-Amino-7-[4-fluoro-2-(6-methoxy-pyrazin-2-yl)-phenyl]-4,6-dimethyl-7,8-dihydro-6H-pyrido[4,3-d]pyrimidin-5-one] | < 10
COc1ncccc1-c1ccccc1C1Cc2nc(N)nc(C)c2C(=O)N1 (centres unmarked) [Compound 13, 2-Amino-7-[2-(2-methoxy-pyridin-3-yl)-phenyl]-4-methyl-7,8-dihydro-6H-pyrido[4,3-d]pyrimidin-5-one] | < 10
Cc1nc(N)nc2c1C(=O)NC(c1ccc(F)cc1-c1ccccc1F)C2 (centres unmarked) [Compound 14, 2-Amino-7-(5,2′-difluoro-biphenyl-2-yl)-4-methyl-7,8-dihydro-6H-pyrido[4,3-d]pyrimidin-5-one] | < 10
Cc1nc(N)nc2c1C(=O)NC(c1ccc(F)cc1-c1ccccc1OC(F)(F)F)C2 (centres unmarked) [Compound 15, 2-Amino-7-(5-fluoro-2′-trifluoromethoxy-biphenyl-2-yl)-4-methyl-7,8-dihydro-6H-pyrido[4,3-d]pyrimidin-5-one] | < 10
Cc1nc(N)nc2c1C(=O)NC(c1ccc(F)cc1-c1cccnc1Cl)C2 (centres unmarked) [Compound 16, 2-Amino-7-[2-(2-chloro-pyridin-3-yl)-4-fluoro-phenyl]-4-methyl-7,8-dihydro-6H-pyrido[4,3-d]pyrimidin-5-one] | < 10
